# Test results from US8741934B2, “Inhibitors of ion channels” (Pfizer Limited, priority 2007, dated 2014).
# Target: T1, hSCN3A sodium channels (Homo sapiens, UniProt Q9NY46)
# T1 construct: expressed in transfected cells
# Assay: hSCN3A electrophysiology, whole-cell patch-clamp or PatchXpress 7000, estimated IC-50 (Table B)
# Format: cell-based
# Conditions: estimated IC-50; hSCN3A cells, whole-cell patch-clamp or PatchXpress 7000; read-out: SCN3A EIC-50
# How it was run: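 A 20 msec test pulse to 0 mV followed an 8 sec conditioning prepulse at each cell's measured V1/2. Room-temperature (22-24° C) recordings on HEK cells stably expressing the channel, conventional or PatchXpress.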
# T1 sequence (Q9NY46 whole entry): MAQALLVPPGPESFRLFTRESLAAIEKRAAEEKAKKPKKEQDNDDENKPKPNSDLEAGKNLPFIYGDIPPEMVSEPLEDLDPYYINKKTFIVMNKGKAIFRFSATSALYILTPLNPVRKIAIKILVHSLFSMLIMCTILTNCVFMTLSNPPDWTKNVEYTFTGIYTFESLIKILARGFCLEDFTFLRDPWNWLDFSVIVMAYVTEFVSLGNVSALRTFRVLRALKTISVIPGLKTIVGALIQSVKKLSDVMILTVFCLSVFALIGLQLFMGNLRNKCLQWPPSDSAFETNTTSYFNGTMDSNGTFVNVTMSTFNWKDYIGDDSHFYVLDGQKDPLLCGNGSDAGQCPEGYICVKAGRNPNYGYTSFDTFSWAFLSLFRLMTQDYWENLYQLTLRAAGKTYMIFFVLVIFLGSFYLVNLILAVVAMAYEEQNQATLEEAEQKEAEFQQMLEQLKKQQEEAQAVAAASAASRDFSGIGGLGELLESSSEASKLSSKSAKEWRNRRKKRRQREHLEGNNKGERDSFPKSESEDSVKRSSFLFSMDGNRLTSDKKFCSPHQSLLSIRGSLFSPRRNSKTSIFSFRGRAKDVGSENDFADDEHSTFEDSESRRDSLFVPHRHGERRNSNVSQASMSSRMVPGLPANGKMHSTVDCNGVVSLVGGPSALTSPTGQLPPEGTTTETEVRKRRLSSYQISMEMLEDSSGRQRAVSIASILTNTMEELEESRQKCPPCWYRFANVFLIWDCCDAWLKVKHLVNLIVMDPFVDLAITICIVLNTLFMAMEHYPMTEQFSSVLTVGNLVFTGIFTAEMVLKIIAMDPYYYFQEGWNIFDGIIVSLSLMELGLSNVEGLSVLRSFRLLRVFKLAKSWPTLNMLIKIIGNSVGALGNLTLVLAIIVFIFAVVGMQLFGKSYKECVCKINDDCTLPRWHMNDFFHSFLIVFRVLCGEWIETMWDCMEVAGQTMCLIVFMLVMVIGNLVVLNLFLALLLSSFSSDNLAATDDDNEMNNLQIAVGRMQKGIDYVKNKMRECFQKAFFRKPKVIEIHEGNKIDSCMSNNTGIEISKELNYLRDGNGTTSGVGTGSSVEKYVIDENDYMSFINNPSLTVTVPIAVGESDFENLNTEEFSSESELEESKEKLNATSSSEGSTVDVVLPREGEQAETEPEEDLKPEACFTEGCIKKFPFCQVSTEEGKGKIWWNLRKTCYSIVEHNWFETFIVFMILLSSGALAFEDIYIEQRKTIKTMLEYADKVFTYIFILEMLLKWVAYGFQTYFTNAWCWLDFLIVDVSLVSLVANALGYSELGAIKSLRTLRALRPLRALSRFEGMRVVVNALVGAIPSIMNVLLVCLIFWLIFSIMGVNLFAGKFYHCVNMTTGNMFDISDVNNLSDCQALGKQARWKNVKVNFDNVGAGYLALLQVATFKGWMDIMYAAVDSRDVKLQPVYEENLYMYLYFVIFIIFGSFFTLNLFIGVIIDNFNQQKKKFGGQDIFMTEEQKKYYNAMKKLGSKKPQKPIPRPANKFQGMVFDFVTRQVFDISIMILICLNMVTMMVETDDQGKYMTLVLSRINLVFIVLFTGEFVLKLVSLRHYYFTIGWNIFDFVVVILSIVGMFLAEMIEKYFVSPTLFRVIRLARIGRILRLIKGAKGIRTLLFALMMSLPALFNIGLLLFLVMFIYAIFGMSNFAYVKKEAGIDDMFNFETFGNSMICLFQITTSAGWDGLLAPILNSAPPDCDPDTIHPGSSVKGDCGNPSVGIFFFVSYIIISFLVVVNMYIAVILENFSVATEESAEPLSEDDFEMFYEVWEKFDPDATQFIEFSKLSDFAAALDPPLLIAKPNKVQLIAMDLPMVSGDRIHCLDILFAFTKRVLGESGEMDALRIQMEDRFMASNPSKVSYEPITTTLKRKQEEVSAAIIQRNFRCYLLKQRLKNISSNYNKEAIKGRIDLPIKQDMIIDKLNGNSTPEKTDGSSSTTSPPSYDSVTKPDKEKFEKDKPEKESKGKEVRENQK
row,SMILES,IC50 [nM]
1,"O=C(NCc1ccc(Cl)c(Cl)c1)c1ccc(S(=O)(=O)Nc2nccs2)c(F)c1 [Example 297, N-(3,4-dichlorobenzyl)-3-fluoro-4-[(1,3-thiazol-2-ylamino)sulfonyl]benzamide]",60
2,"O=C(NCc1ccc(F)c(F)c1)c1ccc(S(=O)(=O)Nc2nccs2)c(F)c1 [Example 298, N-(3,4-difluorobenzyl)-3-fluoro-4-[(1,3-thiazol-2-ylamino)sulfonyl]benzamide]",160
3,"O=C(NCc1ccc(F)c(Cl)c1)c1ccc(S(=O)(=O)Nc2nccs2)c(F)c1 [Example 299, N-(3-chloro-4-fluorobenzyl)-3-fluoro-4-[(1,3-thiazol-2-yl-amino)sulfonyl]benzamide]",110
4,"O=C(NCc1ccc(F)c(OC(F)(F)F)c1)c1ccc(S(=O)(=O)Nc2nccs2)c(F)c1 [Example 300, 3-Fluoro-N-[4-fluoro-3-(trifluoromethoxy)benzyl]-4-[(1,3-thiazol-2-ylamino)sulfonyl]benzamide]",130
5,"O=C(NCc1ccc(OC(F)(F)F)cc1)c1ccc(S(=O)(=O)Nc2nccs2)c(F)c1 [Example 301, 3-Fluoro-4-[(1,3-thiazol-2-ylamino)sulfonyl]-N-[4-(trifluoromethoxy)benzyl]benzamide]",180
6,"O=C(NCc1cccc(C(F)(F)F)c1)c1ccc(S(=O)(=O)Nc2nccs2)c(F)c1 [Example 302, 3-Fluoro-4-[(1,3-thiazol-2-ylamino)sulfonyl]-N-[3-(trifluoromethyl)benzyl]benzamide]",350
7,"O=C(NCc1ccc(C(F)(F)F)cc1)c1ccc(S(=O)(=O)Nc2nccs2)c(F)c1 [Example 303, 3-Fluoro-4-[(1,3-thiazol-2-ylamino)sulfonyl]-N-[4-(trifluoromethyl)benzyl]benzamide]",140
8,"O=C(NCc1ccc(C(F)(F)F)c(F)c1)c1ccc(S(=O)(=O)Nc2nccs2)c(F)c1 [Example 304, 3-Fluoro-N-[3-fluoro-4-(trifluoromethyl)benzyl]-4-[(1,3-thiazol-2-yl-amino)sulfonyl]benzamide]",70
9,"O=C(NCc1ccc(OC(F)(F)F)c(F)c1)c1ccc(S(=O)(=O)Nc2nccs2)c(F)c1 [Example 305, 3-Fluoro-N-[3-fluoro-4-(trifluoromethoxy)benzyl]-4-[(1,3-thiazol-2-ylamino)sulfonyl]benzamide]",60
10,"O=C(NCc1ccc(C(F)(F)F)c(Cl)c1)c1ccc(S(=O)(=O)Nc2nccs2)c(F)c1 [Example 306, N-[3-chloro-4-(trifluoromethyl)benzyl]-3-fluoro-4-[(1,3-thiazol-2-ylamino)sulfonyl]benzamide]",40
11,"Cc1cc(NC(=O)c2ccc(S(=O)(=O)Nc3nccs3)cc2)n(-c2ccccc2)n1 [Example 307, N-(3-methyl-1-phenyl-1H-pyrazol-5-yl)-4-[(1,3-thiazol-2-ylamino)sulfonyl]benzamide]",23700
12,"O=C(Nc1ccn(Cc2ccc(Cl)cc2)n1)c1ccc(S(=O)(=O)Nc2nccs2)cc1 [Example 308, N-[1-(4-chlorobenzyl)-1H-pyrazol-3-yl]-4-[(1,3-thiazol-2-ylamino)sulfonyl]benzamide]",320
13,"O=C(NCc1ccc(C(F)(F)F)c(F)c1)c1ccc(S(=O)(=O)Nc2ncc(Cl)s2)c(F)c1 [Example 310, 4-{[(5-Chloro-1,3-thiazol-2-yl)amino]sulfonyl}-3-fluoro-N-[3-fluoro-4-(trifluoromethyl)benzyl]benzamide]",50
14,"O=C(NCc1ccc(Cl)c(Cl)c1)c1ccc(S(=O)(=O)Nc2ncc(Cl)s2)c(F)c1 [Example 311, 4-{[(5-Chloro-1,3-thiazol-2-yl)amino]sulfonyl}-N-(3,4-dichlorobenzyl)-3-fluorobenzamide]",60
15,"O=C(NCc1ccc(F)c(F)c1)c1ccc(S(=O)(=O)Nc2ncc(Cl)s2)c(F)c1 [Example 312, 4-{[(5-Chloro-1,3-thiazol-2-yl)amino]sulfonyl}-N-(3,4-difluorobenzyl)-3-fluorobenzamide]",140
16,"O=C(NCc1ccc(F)c(OC(F)(F)F)c1)c1ccc(S(=O)(=O)Nc2ncc(Cl)s2)c(F)c1 [Example 313, 4-{[(5-Chloro-1,3-thiazol-2-yl)amino]sulfonyl}-3-fluoro-N-[4-fluoro-3-(trifluoromethoxy)benzyl]benzamide]",160
17,"O=C(NCc1ccc(OC(F)(F)F)cc1)c1ccc(S(=O)(=O)Nc2ncc(Cl)s2)c(F)c1 [Example 314, 4-{[(5-Chloro-1,3-thiazol-2-yl)amino]sulfonyl}-3-fluoro-N-[4-(trifluoromethoxy)benzyl]benzamide]",70
18,"O=C(NCc1ccc(C(F)(F)F)cc1)c1ccc(S(=O)(=O)Nc2ncc(Cl)s2)c(F)c1 [Example 315, 4-{[(5-Chloro-1,3-thiazol-2-yl)amino]sulfonyl}-3-fluoro-N-[4-(trifluoromethyl)benzyl] benzamide]",110
19,"O=C(NCc1ccc(F)c(C(F)(F)F)c1)c1ccc(S(=O)(=O)Nc2ncc(Cl)s2)c(F)c1 [Example 316, 4-{[(5-Chloro-1,3-thiazol-2-yl)amino]sulfonyl}-3-fluoro-N-[4-fluoro-3-(trifluoromethyl)benzyl] benzamide]",140

row,SMILES,IC50 [nM]
1,"O=C(NCc1ccc(C(F)(F)F)c(Cl)c1)c1ccc(S(=O)(=O)Nc2ncns2)c(F)c1 [Example 317, N-[3-chloro-4-(trifluoromethyl)benzyl]-3-fluoro-4-[(1,2,4-thiadiazol-5-ylamino)sulfonyl]benzamide]",40
2,"O=C(NCc1ccc(OC(F)(F)F)c(F)c1)c1ccc(S(=O)(=O)Nc2ncns2)c(F)c1 [Example 318, 3-Fluoro-N-[3-fluoro-4-(trifluoromethoxy)benzyl]-4-[(1,2,4-thiadiazol-5-ylamino)sulfonyl]benzamide]",140
3,"O=C(NCc1ccc(C(F)(F)F)c(F)c1)c1ccc(S(=O)(=O)Nc2ncns2)c(F)c1 [Example 319, 3-Fluoro-N-[3-fluoro-4-(trifluoromethyl)benzyl]-4-[(1,2,4-thiadiazol-5-ylamino)sulfonyl]benzamide]",70
4,"CC(NC(=O)c1ccc(S(=O)(=O)Nc2ncns2)c(F)c1)c1ccc(C(F)(F)F)cc1 (stereo not shown) [Example 320, 3-Fluoro-4-[(1,2,4-thiadiazol-5-ylamino)sulfonyl]-N-{1-[4-(trifluoromethyl)phenyl]ethyl}benzamide]",2660
5,"O=C(NCc1ccc(OC(F)(F)F)c(F)c1)c1ccc(S(=O)(=O)Nc2ncns2)cc1 [Example 321, N-[3-fluoro-4-(trifluoromethoxy)benzyl]-4-[(1,2,4-thiadiazol-5-ylamino)sulfonyl]benzamide]",40
6,"CC(NC(=O)c1ccc(S(=O)(=O)Nc2ncns2)cc1)c1ccc(C(F)(F)F)cc1 (stereo not shown) [Example 322, 4-[(1,2,4-Thiadiazol-5-ylamino)sulfonyl]-N-{1-[4-(trifluoromethyl)phenyl]ethyl}benzamide]",340
7,"O=C(NCc1ccc(C(F)(F)F)c(F)c1)c1ccc(S(=O)(=O)Nc2ncns2)cc1 [Example 323, N-[3-fluoro-4-(trifluoromethyl)benzyl]-4-[(1,2,4-thiadiazol-5-ylamino)sulfonyl]benzamide]",190
8,"O=C(NCc1ccc(C(F)(F)F)c(Cl)c1)c1ccc(S(=O)(=O)Nc2ncns2)cc1 [Example 324, N-[3-chloro-4-(trifluoromethyl)benzyl]-4-[(1,2,4-thiadiazol-5-ylamino)sulfonyl]benzamide]",30
9,"O=C(NCc1ccc(C(F)(F)F)cc1)c1ccc(S(=O)(=O)Nc2nccs2)cc1F [Example 325, 2-Fluoro-4-[(1,3-thiazol-2-ylamino)sulfonyl]-N-[4-(trifluoromethyl)benzyl]benzamide]",460
10,"O=C(NCc1cccc(C(F)(F)F)c1)c1ccc(S(=O)(=O)Nc2nccs2)cc1F [Example 327, 2-Fluoro-4-[(1,3-thiazol-2-ylamino)sulfonyl]-N-[3-(trifluoromethyl)benzyl]benzamide]",260
11,"O=C(NCc1ccc(OC(F)(F)F)c(F)c1)c1ccc(S(=O)(=O)Nc2nccs2)cc1F [Example 328, 2-Fluoro-N-[3-fluoro-4-(trifluoromethoxy)benzyl]-4-[(1,3-thiazol-2-ylamino)sulfonyl] benzamide]",120
12,"O=C(NCc1ccc(F)c(F)c1)c1ccc(S(=O)(=O)Nc2nccs2)cc1F [Example 329, N-(3,4-difluorobenzyl)-2-fluoro-4-[(1,3-thiazol-2-ylamino)sulfonyl] benzamide]",360
13,"O=C(NCc1ccc(OC(F)(F)F)cc1)c1ccc(S(=O)(=O)Nc2nccs2)cc1F [Example 330, 2-Fluoro-4-[(1,3-thiazol-2-ylamino)sulfonyl]-N-[4-(trifluoromethoxy)benzyl]benzamide]",130
14,"O=C(NCc1ccc(F)c(OC(F)(F)F)c1)c1ccc(S(=O)(=O)Nc2nccs2)cc1F [Example 331, 2-Fluoro-N-[4-fluoro-3-(trifluoromethoxy)benzyl]-4-[(1,3-thiazol-2-ylamino)sulfonyl] benzamide]",900
15,"O=C(NCc1ccc(F)c(Cl)c1)c1ccc(S(=O)(=O)Nc2nccs2)cc1F [Example 332, N-(3-chloro-4-fluorobenzyl)-2-fluoro-4-[(1,3-thiazol-2-ylamino)sulfonyl] benzamide]",380
16,"O=C(NCc1ccc(C(F)(F)F)c(F)c1)c1ccc(S(=O)(=O)Nc2nccs2)cc1F [Example 333, 2-Fluoro-N-[3-fluoro-4-(trifluoromethyl)benzyl]-4-[(1,3-thiazol-2-ylamino)sulfonyl] benzamide]",210
17,"O=C(NCc1ccc(Cl)c(F)c1)c1ccc(S(=O)(=O)Nc2nccs2)cc1F [Example 334, N-(4-chloro-3-fluorobenzyl)-2-fluoro-4-[(1,3-thiazol-2-ylamino)sulfonyl] benzamide]",340
18,"O=C(NCc1cccc(OC(F)(F)F)c1)c1ccc(S(=O)(=O)Nc2nccs2)cc1F [Example 335, 2-Fluoro-4-[(1,3-thiazol-2-ylamino)sulfonyl]-N-[3-(trifluoromethoxy)benzyl]benzamide]",200
